According to patent US8927499B2, “Glycine derivative capable of inhibiting melanin formation and composition using the same” (Corum Inc., priority 2010, dated 2015):
Where a SMILES comes first, the peptide text is derived from it. [ ]: non-standard residue; d: D form. Sar = CNCC(=O)O

Experiments:
[1] = Color stability test (accelerated, 45° C. oven); type: physicochemical
Experimental: The test samples (compounds (II), (III), and (IV)) and the reference sample are separately dissolved in water and a buffer solution with pH=6 to prepare 0.5 wt % solutions. The buffer solution with pH=6 is a mixture solution of 3.8 ml 0.1M citric acid and 16.2 ml citrate. […] of a test sample are dissolved in the mixture solution to prepare a 0.5 wt % solution. Then, the solutions are placed in a 45° C. oven to perform an accelerated color stability test. After 14 and 28 days, the spectrophotometer is used to measure the light transmittance of these solutions at 440 nm.

[2] = system: 3T3 (Swiss albino mouse fibroblast) cells; test: Cytotoxicity test by MTT assay (3T3); type: cell-based; conditions: 3T3 and B16-F10 cells, compared with ascorbic acid derivative known to have no apparent cytotoxicity
Experimental: The cytotoxicity test is evaluated by MTT assay.

B16-F10 cells = test: Melanogenesis inhibition test; type: cell-based, Mus musculus; conditions: 3 days, OD 405 nm, tyrosine + α-MSH stimulated
Experimental: Melanogenesis Inhibition Test In the melanogenesis inhibition test, Kojic acid is used as the positive control. Compounds (II), (III), and (IV) and ascorbic acid derivative are evaluated regarding their whitening effect under a concentration of no cytotoxicity to test the melanogenesis inhibiting ability. B16-F10 B16-F10 cells are placed in a 96-well plate and each well comprises 5000 cells (5000 cells/well). The cells are incubated at 37° C. in 5% CO2 and 10% FBS DMEM (Fetal Bovine Serum Dulbecco's modified Eagle's medium) overnight to allow the cells to attach to the wells. Melanin production rate (%) is defined by the following equation: [formula] where ODT represents the optical density of the test sample at the wavelength 405 nm by the spectrophotometer; ODB represents the optical density of the blank control at 405 nm; ODN represents the optical density of the negative control at 405 nm. The negative control comprises 0.1 mg/ml of tyrosine and 1 μM of α-MSH (α-melanocyte stimulating hormone). The blank control comprises 0.1 mg/ml of tyrosine but no α-MSH. The test sample is prepared by stocking 5 wt % of compound (II), (III), or (IV) in phenol red free DMEM and 5 wt % FBS no phenol red DMEM with 0.1 mg/ml tyrosine and 1 μM α-MSH is prepared and filtered by a 0.22 μm filter. 0.1 mg/ml tyrosine may cause the medium over saturated and thus centrifugal filtration is required. The testing sample was prepared in the medium mentioned above. Until cells were at full confluence, they were treated with test samples and reference samples (prepared above) 100 μL each well for 3 days. After 3 days incubation, 100 μL 1N NaOH is added in each well. The solution is placed on a shaking table at least 10 minutes. The optical density of the test sample at 405 nm is measured. The positive control is Kojic acid (500 ppm concentration). Based on student's t-test, the P value is less than 0.05.

[3] = 0.5 wt % aqueous solution, 14 days
[4] = 0.5 wt % aqueous solution, 28 days
[5] = 0.5 wt % in citric acid buffer solution pH = 6, 14 days
[6] = 0.5 wt % in citric acid buffer solution pH = 6, 28 days

Transmittance % (440 nm) [1, 3]	Transmittance % (440 nm) [1, 4]	Transmittance % (440 nm) [1, 5]	Transmittance % (440 nm) [1, 6]	SMILES	safety of using (cytotoxicity) [2]	melanin production rate % ± standard deviation (B16-F10 cells; sample concentration 0.2%)	melanin production rate % ± standard deviation (B16-F10 cells; sample concentration 0.4%)
37.8%	20.8%	0.7%	2.1%	O=C1O[C@H]([C@@H](O)CO)C(O)=C1O [Ascorbic acid]	–	–	–
97.8%	96.9%	–	–	O=C1O[C@H]([C@@H](O)CO)C(O)=C1O[C@H]1O[C@H](CO)[C@@H](O)[C@H](O)[C@H]1O [ascorbic acid 2-glucoside (AA2G), ascorbic acid 2-glucoside]	–	86.8 ± 3.4%	76.2 ± 10.5%
–	–	85.6%	80.9%	O=C1O[C@H]([C@@H](O)CO)C(O)=C1OP(=O)([O-])[O-].[Mg+2] [ascorbic acid 2-phosphate magnesium]	–	105.3 ± 3.4%	88.4 ± 11.4%
–	–	98.6%	97.5%	CCOC1=C(O)C(=O)O[C@@H]1[C@@H](O)CO [ethyl ascorbic acid]	–	86.4 ± 2.6%	78.9 ± 6.3%

Further lines, the compound ahead of its results:

SMILES	Transmittance % (440 nm) [1, 3]	Transmittance % (440 nm) [1, 4]	Transmittance % (440 nm) [1, 5]	Transmittance % (440 nm) [1, 6]	safety of using (cytotoxicity) [2]	melanin production rate % ± standard deviation (B16-F10 cells; sample concentration 0.2%)	melanin production rate % ± standard deviation (B16-F10 cells; sample concentration 0.4%)
CC(=O)NCC(=O)NCCC(=O)O [Compound (II), 3(2-acetylamino-acetylamino)-propionic acid]	98.9%	99.8%	99.4%	99.3%	the same as that of ascorbic acid derivative	64.7 ± 12.8%	11.0 ± 2.9%
CC(=O)NCC(=O)NCCCC(=O)O [Compound (III), 4-(2-Acetylamino-acetylamino)-butyric acid]	99.6%	99.5%	100%	99.9%	the same as that of ascorbic acid derivative	70.4 ± 10.0%	14.2 ± 3.0%
CC(=O)NCC(=O)N(C)CC(=O)O [Compound (IV), [(2-Acetylamino-acetyl)-methyl-amino]-acetic acid] (Ac-Gly-[Sar]-OH)	99.7%	100%	100%	100%	the same as that of ascorbic acid derivative	60.8 ± 22.3%	15.0 ± 5.6%
O=c1cc(CO)occ1O [Kojic acid]	94.9%	81%	34.8%	4.0%	–	–	–
OC[C@H]1O[C@@H](Oc2ccc(O)cc2)[C@H](O)[C@@H](O)[C@@H]1O [arbutin]	96.7%	95.4%	–	–	–	–	–
NCCC(=O)N[C@@H](Cc1cnc[nH]1)C(=O)O [carnosine]	–	–	–	–	–	129 ± 1.7%	141 ± 10.5%
